Measurements: paper PMC12020424, “Identification and Validation of Cyclic Peptides with Mucin-Selective, Location-Specific Binding in the Gastrointestinal Tract” (ACS Nano, 2025)
Bridge positions count the residues as written; N and C are the ends. Ends that are not written are not given here.

Legend:
[1] = tested on: MUC2-containing intestinal tissue (jejunal); assay: Ex vivo fluorescent binding to small intestine tissue; set-up: species or system porcine; conditions: MUC2-selective peptides to small intestine; for Overall nanoparticle “score”: scaled between free AF647 (0) and WGA-AF647 (1), mean across trials n = 3; for Selectivity: score for MUC2 tissue / sum of scores for all mucins, n = 3
Source text: (§1) After identifying the peptide hits for each mucin, we tested their binding in an ex vivo setting (Figure S1), evaluating their interaction with mucin-containing porcine tissue and semiquantitatively representing it through fluorescent imaging (Figure 3a). The cyclic peptides were synthesized and conjugated to a fluorophore, Alexa Fluor 647 (AF647), at the N-terminus to allow fluorescent imaging to be used to semiquantitatively measure the peptides’ ex vivo tissue binding, compared to free AF647 and AF647 conjugated to wheat germ agglutinin (WGA), a known lectin for glycoproteins.[40] […] Porcine GI tissue was used due to its similarity in mucin expression compared to human GI tissue and its capacity to source large surface areas of tissue for experiments.[41],[42] Representative IVIS images are shown in Figure 3b-e, where the first four columns represent the four identified peptides (M2.1–M2.4 in Figure 3b,c, M5.1–M5.4 in Figure 3d,e), the fifth column represents WGA-AF647, and the sixth column represents AF647. The “score” results for the peptide ligands are presented in Figure 3f,g for the mucins of interest, with Tables S2–S5 and Figure S3 detailing results for the other tissues (the equation for calculating the “score” is found in the Materials and Methodssection). […] We also examined selectivity by incubating peptides on nontarget tissues. Figure 3h,i depicts the “selectivity” results for the MUC2-selective and MUC5AC-selective peptides, respectively. Selectivity was calculated by determining the ratio of the “score” for a particular mucin to the sum of the “scores” for all mucins (see the Materials and Methods section for the equation used).
(§2) The top-performing hits from phage display were tested on ex vivo segments of porcine mucin-containing tissues (jejunal, stomach, and esophageal tissues) obtained from local abattoirs or laboratory-maintained pigs. Tissue was used either immediately after acquisition or after storage at −80 °C; tissue was used at most 1 week after acquisition and storage at −80 °C. After acquisition and equilibration to room temperature, the tissue was washed twice with 25 mL (each) of cold 1× PBS to remove undigested food and other debris. After washing and cleaning, the tissue was mounted between two magnetic plates with holes corresponding to a 48-well plate, as previously described,[72] such that the luminal side of the tissue was facing up (Figure S1). After the tissue was mounted, the amount of peptide/protein corresponding to 40 μg of AF647 was suspended in 200 μL of 1× PBS and added to the wells created by the magnetic plates. This was done 3× for each formulation to perform the experiment in triplicate. In addition, plain 1× PBS was added to one well to serve as the background measurement. After the peptides were added, the plate setup was covered with aluminum foil and allowed to incubate for 1 h at room temperature with gentle agitation (50 rpm). After incubation, the nonbinding peptides were removed by pouring out the solutions onto a clean paper towel, and the setup was washed three times by adding 200 μL of 1× PBS to each well and gently agitating the setup for 30 s before removing the washing solution. After washing was complete, fluorescence imaging was performed using an IVIS Spectrum fluorescent imaging system (PerkinElmer), with an automatically calculated exposure time (usually ∼1 s), a 20 cm × 20 cm field of view, and an excitation/emission of 640/680 nm, respectively. The imaging results were analyzed using Living Image software to calculate the total fluorescence intensity for each well, and the results for each hit or control were averaged across different wells. The negative control used was unconjugated AF647, while the positive control was WGA-AF647, since WGA is a known lectin that binds glycoproteins.
(§3) To better account for tissue-to-tissue variability, the results for each trial were reported as scores rather than using the raw fluorescence intensity. […]

[2] = tested on: MUC5AC-containing stomach tissue; assay: Ex vivo fluorescent binding to stomach tissue; set-up: species or system porcine; conditions: MUC5AC-selective peptides to stomach
Source text: as §1
as §2, with “After the peptides were added, the plate setup was covered with aluminum foil and allowed to incubate for 1 h at room temperature with gentle agitation (50 rpm). After incubation, the nonbinding peptides were removed by pouring out the solutions onto a clean paper towel, and the setup was washed three times by adding 200 μL of 1× PBS to each well and gently agitating the setup for 30 s before removing the washing solution.” left out, “The negative control used was unconjugated AF647, while the positive control was WGA-AF647, since WGA is a known lectin that binds glycoproteins.” left out
as §3

| Overall nanoparticle “score” [1] | Selectivity [1] | Overall nanoparticle “score” ([2]; scaled between free AF647 (0) and WGA-AF647 (1), mean across trials n = 3) | Selectivity ([2]; score for MUC5AC tissue / sum of scores for all mucins, n = 3) | Sequence |
| --- | --- | --- | --- | --- |
| 0.550 | 0.298 |  |  | CAKHRIMLC (disulfide 1-9 (inferred)) [Peptide M2.1, CX7C cyclic peptide hit for MUC2; AF647 conjugated at N-terminus in ex vivo tests] |
|  |  | 0.800 | 0.370 | CTDKASSSC (disulfide 1-9 (inferred)) [Peptide M5.1, CX7C cyclic peptide hit for MUC5AC] |
| 0.243 | 0.396 |  |  | CTDKASSSC (disulfide 1-9 (inferred)) [Peptide M2.2, CX7C cyclic peptide hit for MUC2] |
